Measurements: patent US20250195521A1 (Revolution Medicines, Inc., priority 2020, published 2025)

How the values were obtained:
[1] = system: NCI-H358 cells (K-Ras G12C); test: CellTiter-Glo cell viability, NCI-H358; type: cell-based, human; settings: Homo sapiens, NCI-H358, 120 h, K-Ras G12C, 5-day treatment; read-out: H358 Cell Viability IC50
Outline: (§1)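 Viability is read as luminescence after five days of compound exposure, with plates first equilibrated to room temperature for roughly 30 minutes. Each signal is expressed as a percentage of the mean DMSO control, and curves are fitted by four-parameter logistic regression.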

[2] = system: Capan-1 cells (K-Ras G12V); test: CellTiter-Glo cell viability, Capan-1; type: cell-based, human; settings: Homo sapiens, CAPAN-1, 120 h, K-Ras G12V, 5-day treatment; read-out: Capan-1 Cell Viability IC50
Outline: as §1

[3] = target: KRAS G12C (Homo sapiens (Human), UniProt P01116+P62937, G12C); test: Ras-Raf disruption/FRET/MOA assay (BRAF RBD, Cyclophilin A); type: biochemical; settings: read-out: KRAS G12C FRET IC50
Outline: (§2)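 Measured: compound-facilitated Cyclophilin A:Ras complex blocking RAF RBD binding. Conditions: 12.5 nM Ras-GMPPNP, 50 nM BRAF RBD, 25 μM CypA, 3 h plus 1.5 h detection. Output: IC50 from TR-FRET ratio.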

[4] = target: KRAS G12D (Homo sapiens (Human), UniProt P01116+P62937, G12D); test: as above; type: biochemical; settings: read-out: KRAS G12D FRET IC50
Outline: as §2

[5] = target: KRAS G12S (Homo sapiens (Human), UniProt P01116+P62937, G12S); test: as above; type: biochemical; settings: read-out: KRAS G12S FRET IC50
Outline: as §2

[6] = target: KRAS G12V (Homo sapiens (Human), UniProt P01116+P62937, G12V); test: as above; type: biochemical; settings: read-out: KRAS G12V FRET IC50
Outline: as §2

[7] = target: KRAS G13C (Homo sapiens (Human), UniProt P01116+P62937, G13C); test: as above; type: biochemical; settings: read-out: KRAS G13C FRET IC50
Outline: as §2

[8] = target: KRAS G13D (Homo sapiens (Human), UniProt P01116+P62937, G13D); test: as above; type: biochemical; settings: read-out: KRAS G13D FRET data IC50
Outline: as §2

[9] = target: KRAS WT (Homo sapiens (Human), UniProt P01116+P62937); test: as above; type: biochemical; settings: read-out: KRAS WT FRET data IC50
Outline: as §2

[10] = target: NRAS G12C (Homo sapiens (Human), UniProt P01111+P62937, G12C); test: as above; type: biochemical; settings: read-out: NRAS G12C FRET data IC50
Outline: as §2

Sequence of KRAS G12D (P01116 other isoform, or with tags, fused parts or gaps G12D): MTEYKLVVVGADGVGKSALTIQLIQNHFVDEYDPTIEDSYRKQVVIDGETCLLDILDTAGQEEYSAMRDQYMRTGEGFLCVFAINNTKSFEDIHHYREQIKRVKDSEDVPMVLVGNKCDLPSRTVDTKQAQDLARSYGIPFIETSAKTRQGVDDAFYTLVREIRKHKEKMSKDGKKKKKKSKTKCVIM
Sequence of KRAS G12D (P62937 whole entry): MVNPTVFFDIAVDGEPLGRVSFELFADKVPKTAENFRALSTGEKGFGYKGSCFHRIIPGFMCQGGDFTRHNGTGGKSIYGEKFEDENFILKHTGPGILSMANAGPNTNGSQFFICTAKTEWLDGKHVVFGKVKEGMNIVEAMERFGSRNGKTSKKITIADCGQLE
Sequence of KRAS G13C (P01116 other isoform, or with tags, fused parts or gaps G13C): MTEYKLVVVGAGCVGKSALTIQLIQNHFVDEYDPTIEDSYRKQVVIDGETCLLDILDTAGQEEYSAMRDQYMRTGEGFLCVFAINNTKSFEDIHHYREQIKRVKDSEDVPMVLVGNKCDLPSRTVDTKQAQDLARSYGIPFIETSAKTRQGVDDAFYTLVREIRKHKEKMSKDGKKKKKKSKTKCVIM
Sequence of KRAS G13C (P62937 whole entry): as the sequence (P62937 whole entry) above
Sequence of KRAS G12V (P01116 other isoform, or with tags, fused parts or gaps G12V): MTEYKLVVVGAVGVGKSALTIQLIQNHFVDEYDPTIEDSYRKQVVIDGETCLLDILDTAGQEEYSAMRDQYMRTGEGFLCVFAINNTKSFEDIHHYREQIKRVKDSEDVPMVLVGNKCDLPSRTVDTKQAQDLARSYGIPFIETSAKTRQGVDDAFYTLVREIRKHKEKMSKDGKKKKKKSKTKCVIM
Sequence of KRAS G12V (P62937 whole entry): as the sequence (P62937 whole entry) above
Sequence of KRAS G13D (P01116 other isoform, or with tags, fused parts or gaps G13D): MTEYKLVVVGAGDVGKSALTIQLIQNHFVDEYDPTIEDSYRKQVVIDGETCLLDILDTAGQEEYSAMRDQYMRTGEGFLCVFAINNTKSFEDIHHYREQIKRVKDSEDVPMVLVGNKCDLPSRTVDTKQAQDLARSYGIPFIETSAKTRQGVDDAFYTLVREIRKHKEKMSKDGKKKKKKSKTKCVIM
Sequence of KRAS G13D (P62937 whole entry): as the sequence (P62937 whole entry) above
Sequence of KRAS G12S (P01116 other isoform, or with tags, fused parts or gaps G12S): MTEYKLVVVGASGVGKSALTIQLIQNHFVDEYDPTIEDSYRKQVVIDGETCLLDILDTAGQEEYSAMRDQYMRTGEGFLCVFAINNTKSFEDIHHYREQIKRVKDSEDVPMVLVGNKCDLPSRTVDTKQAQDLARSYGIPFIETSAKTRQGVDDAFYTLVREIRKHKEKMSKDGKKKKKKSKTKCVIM
Sequence of KRAS G12S (P62937 whole entry): as the sequence (P62937 whole entry) above
Sequence of KRAS G12C (P01116-2 other isoform, or with tags, fused parts or gaps G12C): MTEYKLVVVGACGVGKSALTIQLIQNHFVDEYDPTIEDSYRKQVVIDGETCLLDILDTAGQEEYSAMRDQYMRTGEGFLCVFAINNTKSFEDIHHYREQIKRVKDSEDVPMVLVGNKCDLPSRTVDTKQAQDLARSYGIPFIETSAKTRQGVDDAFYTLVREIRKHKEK
Sequence of KRAS G12C (P62937 whole entry): as the sequence (P62937 whole entry) above
Sequence of NRAS G12C (P01111 whole entry G12C): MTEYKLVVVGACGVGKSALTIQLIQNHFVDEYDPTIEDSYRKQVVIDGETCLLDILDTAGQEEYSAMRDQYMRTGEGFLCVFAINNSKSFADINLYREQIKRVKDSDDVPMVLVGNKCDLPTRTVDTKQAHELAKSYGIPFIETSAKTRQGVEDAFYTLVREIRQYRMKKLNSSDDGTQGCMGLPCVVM
Sequence of NRAS G12C (P62937 whole entry): as the sequence (P62937 whole entry) above
Sequence of KRAS WT (P01116 other isoform, or with tags, fused parts or gaps): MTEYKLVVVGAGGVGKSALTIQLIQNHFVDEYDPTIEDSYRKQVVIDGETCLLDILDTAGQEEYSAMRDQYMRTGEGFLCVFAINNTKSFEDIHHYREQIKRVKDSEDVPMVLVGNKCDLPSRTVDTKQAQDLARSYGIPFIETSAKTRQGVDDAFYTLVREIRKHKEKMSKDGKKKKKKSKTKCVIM
Sequence of KRAS WT (P62937 whole entry): as the sequence (P62937 whole entry) above

| SMILES | IC50 [1] [nM] | IC50 [2] [nM] | IC50 [3] [nM] | IC50 [4] [nM] | IC50 [5] [nM] | IC50 [6] [nM] | IC50 [7] [nM] | IC50 [8] [nM] | IC50 [9] [nM] | IC50 [10] [nM] |
| --- | --- | --- | --- | --- | --- | --- | --- | --- | --- | --- |
| CCn1c(-c2cccnc2[C@H](C)OC)c2c3cc(ccc31)-c1csc(n1)C[C@H](NC(=O)[C@H](C(C)C)N1C[C@@H](c3ccccc3)CC1=O)C(=O)N1CCC[C@H](N1)C(=O)OCC(C)(C)C2 (single isomer, unassigned) [Compound A544] | 100 to 1000 | 100 to 1000 | 100 to 1000 | 1000 to 10000 | 1000 to 10000 | 1000 to 10000 | 100 to 1000 | 1000 to 10000 | 1000 to 10000 | 100 to 1000 |
| CCn1c(-c2cccnc2[C@H](C)OC)c2c3cc(ccc31)-c1cc(O)cc(c1)C[C@H](NC(=O)[C@H](C(C)C)N(C)C(=O)[C@H]1CCN(C(C)=O)C1)C(=O)N1CCC[C@H](N1)C(=O)OCC(C)(C)C2 [Compound A5] | 100 to 1000 | 100 to 1000 | 10 to 100 | 100 to 1000 | 10 to 100 | 10 to 100 | 100 to 1000 | 100 to 1000 | 100 to 1000 | 10 to 100 |
| CCn1c(-c2cccnc2[C@H](C)OC)c2c3cc(ccc31)-c1cccc(c1)C[C@H](NC(=O)[C@H](C(C)C)N(C)C(C)=O)C(=O)N1CCC[C@H](N1)C(=O)OCC(C)(C)C2 [Compound A61] | 1000 to 10000 | 1000 to 10000 | 1000 to 10000 | > 10000 | 1000 to 10000 | 1000 to 10000 | 1000 to 10000 | 1000 to 10000 | 1000 to 10000 | 1000 to 10000 |
| CCn1c(-c2cccnc2[C@H](C)OC)c2c3cc(ccc31)-c1csc(n1)C[C@H](NC(=O)[C@H](C(C)C)N(C)C(=O)[C@H]1CCN(C(=O)CN(C)C)C1)C(=O)N1CCC[C@H](N1)C(=O)OCC(C)(C)C2 [Compound A97] | 1000 to 10000 | 1000 to 10000 | 100 to 1000 | 1000 to 10000 | 1000 to 10000 | 1000 to 10000 | 1000 to 10000 | 1000 to 10000 | 1000 to 10000 | 100 to 1000 |
| CCn1c(-c2cccnc2[C@H](C)OC)c2c3cc(ccc31)-c1cc(O)cc(c1)C[C@H](NC(=O)[C@@H](C(C)C)N(C)C(C)=O)C(=O)N1CCC[C@H](N1)C(=O)OCC(C)(C)C2 [Compound A256] | 1000 to 10000 |  | 1000 to 10000 | > 10000 | 1000 to 10000 | 1000 to 10000 | 100 to 1000 | 1000 to 10000 | 1000 to 10000 | 1000 to 10000 |
| CCn1c(-c2cccnc2[C@H](C)OC)c2c3cc(ccc31)-c1csc(n1)C[C@H](NC(=O)C1(F)CCC1)C(=O)N1CCC[C@H](N1)C(=O)OCC(C)(C)C2 [Compound A361] | 100 to 1000 | 100 to 1000 | 100 to 1000 | 1000 to 10000 | 100 to 1000 | 100 to 1000 | 100 to 1000 | 100 to 1000 | 100 to 1000 | 100 to 1000 |
| CCn1c(-c2cccnc2[C@H](C)OC)c2c3cc(ccc31)-c1csc(n1)C[C@H](NC(=O)C1(F)CC1)C(=O)N1CCC[C@H](N1)C(=O)OCC(C)(C)C2 [Compound A362] | 100 to 1000 | 100 to 1000 | 100 to 1000 | 1000 to 10000 | 100 to 1000 | 100 to 1000 | 100 to 1000 | 1000 to 10000 | 100 to 1000 | 100 to 1000 |
| CCn1c(-c2cc(N3CCN(C)CC3)cnc2[C@H](C)OC)c2c3cc(ccc31)-c1csc(n1)C[C@H](NC(=O)[C@H](C(C)C)N(C)C(=O)[C@H]1CCCS1(=O)=O)C(=O)N1CCC[C@H](N1)C(=O)OCC(C)(C)C2 [Compound A439] | < 10 | 10 to 100 | 100 to 1000 | 1000 to 10000 | 1000 to 10000 | 1000 to 10000 | 100 to 1000 | 1000 to 10000 | 100 to 1000 | 100 to 1000 |
| CCn1c(-c2cccnc2[C@H](C)OC)c2c3cc(ccc31)-c1csc(n1)C[C@H](NC(=O)[C@H](C(C)C)N(C)C(=O)N1CCC[C@@H]1CN(C)C)C(=O)N1CCC[C@H](N1)C(=O)OCC(C)(C)C2 [Compound A518] | 10 to 100 | 10 to 100 | 100 to 1000 | 100 to 1000 | 100 to 1000 | 1000 to 10000 | 100 to 1000 | 100 to 1000 | 100 to 1000 | 100 to 1000 |
| CCn1c(-c2cccnc2[C@H](C)OC)c2c3cc(ccc31)-c1csc(n1)C[C@H](NC(=O)[C@H](C(C)C)N(CCc1ccncc1)C1CC1)C(=O)N1CCC[C@H](N1)C(=O)OCC(C)(C)C2 [Compound A556] | 100 to 1000 | 100 to 1000 | 100 to 1000 | 1000 to 10000 | 100 to 1000 | 1000 to 10000 | 100 to 1000 | 1000 to 10000 | 100 to 1000 | 100 to 1000 |
| CCn1c(-c2cccnc2[C@H](C)OC)c2c3cc(ccc31)-c1csc(n1)C[C@H](NC(=O)[C@H](C(C)C)N(C)C(=O)N1CC[C@@H](F)[C@H](N)C1)C(=O)N1CCC[C@H](N1)C(=O)OCC(C)(C)C2 [Compound A559] | 10 to 100 | 100 to 1000 | 100 to 1000 | 100 to 1000 | 100 to 1000 | 100 to 1000 | 100 to 1000 | 100 to 1000 | 100 to 1000 | 10 to 100 |
| CCn1c(-c2cccnc2[C@H](C)OC)c2c3cc(ccc31)-c1csc(n1)C[C@H](NC(=O)[C@H](C(C)C)N(C)C(=O)[C@@H]1OCC[C@@H]1c1ccccc1)C(=O)N1CCC[C@H](N1)C(=O)OCC(C)(C)C2 [Compound A585] | 10 to 100 | 100 to 1000 | 100 to 1000 | 1000 to 10000 | 100 to 1000 | 100 to 1000 | 100 to 1000 | 1000 to 10000 | 100 to 1000 | 100 to 1000 |
| CCn1c(-c2cccnc2[C@H](C)OC)c2c3cc(ccc31)-c1cccc(c1)C[C@H](NC(=O)[C@H](C(C)C)N(C)C(=O)[C@@H]1OCC[C@@H]1c1ccccc1)C(=O)N1CCC[C@H](N1)C(=O)OCC(C)(C)C2 [Compound A586] | 100 to 1000 | 100 to 1000 | 10 to 100 | 100 to 1000 | 100 to 1000 | 100 to 1000 | 100 to 1000 | 100 to 1000 | 100 to 1000 | 100 to 1000 |
